The assay addresses T1, TMEM16A (Mus musculus, UniProt Q8BHY3).
T1 construct: gene Ano1
T1 sequence (Q8BHY3 1-960): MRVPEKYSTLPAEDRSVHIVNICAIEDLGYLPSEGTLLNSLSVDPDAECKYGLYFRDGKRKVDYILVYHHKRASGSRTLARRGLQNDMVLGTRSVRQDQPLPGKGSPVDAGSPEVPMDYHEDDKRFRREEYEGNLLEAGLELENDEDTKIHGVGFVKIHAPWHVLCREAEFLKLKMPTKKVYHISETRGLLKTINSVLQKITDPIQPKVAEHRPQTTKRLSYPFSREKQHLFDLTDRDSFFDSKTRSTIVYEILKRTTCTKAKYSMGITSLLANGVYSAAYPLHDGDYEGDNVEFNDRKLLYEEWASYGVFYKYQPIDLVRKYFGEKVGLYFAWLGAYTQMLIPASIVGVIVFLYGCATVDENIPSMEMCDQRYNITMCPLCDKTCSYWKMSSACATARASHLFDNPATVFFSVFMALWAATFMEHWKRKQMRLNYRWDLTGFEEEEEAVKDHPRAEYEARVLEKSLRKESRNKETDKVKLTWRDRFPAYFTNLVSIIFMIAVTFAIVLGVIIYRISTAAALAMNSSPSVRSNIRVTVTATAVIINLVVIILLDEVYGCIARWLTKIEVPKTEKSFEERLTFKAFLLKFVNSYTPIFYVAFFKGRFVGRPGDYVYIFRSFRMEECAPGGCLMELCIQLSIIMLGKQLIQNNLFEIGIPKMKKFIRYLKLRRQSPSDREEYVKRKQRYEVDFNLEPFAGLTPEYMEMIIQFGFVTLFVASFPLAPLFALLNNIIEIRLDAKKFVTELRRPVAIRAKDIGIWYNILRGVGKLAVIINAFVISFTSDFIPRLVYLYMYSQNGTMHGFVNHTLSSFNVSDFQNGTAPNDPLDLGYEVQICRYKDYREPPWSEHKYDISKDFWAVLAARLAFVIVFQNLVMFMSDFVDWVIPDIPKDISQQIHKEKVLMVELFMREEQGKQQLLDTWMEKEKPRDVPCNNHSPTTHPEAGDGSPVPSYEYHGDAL
The experiment in a line: whole-cell patch clamp in LA795 cells; YFP quenching; site-directed mutagenesis. It is filed as cell-based.

In general, IC50 refers to the concentration at which inhibition is half-maximal.

`COc1cc(C2Oc3cc([C@H]4Oc5cc(O)cc(O)c5C(=O)[C@@H]4O)ccc3OC2CO)ccc1O` (stereo partly shown) [silibinin]: the IC50 worked out at 30.9 ± 2.1 µM.
